Assay results reported in patent publication US12522597B2, “Methods and compositions for modulating splicing” (Skyhawk Therapeutics, Inc., priority 2019, dated 2026).
Where two headings read alike, the source gives them in different places.

What was measured:
MDR1 = test: MDCK-MDR1 permeability assay (BBB penetration potential); assay type: in vitro ADME; conditions: dog; for efflux ratio at 120 min, 5 μM: MDCK-MDR1, pH 7.4, MDCK-MDR1: Efflux; for Papp A→B at 120 min, 5 μM: MDCK-MDR1, pH 7.4, MDCK-MDR1: Papp A-B; for Papp B→A at 120 min, 5 μM: MDCK-MDR1, pH 7.4, MDCK-MDR1: Papp B-A
Experimental: (§1) Each determination is performed in duplicate. […] Analytical conditions are outlined below.

[1] = system: MDR1-MDCK cell monolayers; test: as above; assay type: in vitro ADME; conditions: dog, MDCK-MDR1, 120 min, 5 μM, pH 7.4
Experimental: as §1

[2] = system: Huntingtin (HTT) transcripts; test: Quantitative splicing assay (HTT), qPCR; assay type: cell-based; conditions: Homo sapiens, GM04724 (CAG 70/20) Huntington's disease patient lymphoblasts, 24 h
Experimental: GM04724 (CAG 70/20) Huntington's disease patient lymphoblasts (Coriell) are plated in 96-wel v-bottom plates at 50,000 cells/well. Immediately after plating, cells are dosed with compound for 24 h at concentrations ranging from 2.5 uM to 0.15 nM (0.1% DMSO). Treated cells are lysed and cDNA synthesized using the Fast Advanced Cells-to-Ct kit (Thermofisher A35378) according to the manufacturer's instructions. 2 uL of each cDNA are used in qPCR reactions to confirm the compound-induced inclusion of a cryptic exon within intron 49 of the Huntingtin (HTT) transcripts. The qPCR reactions are prepared in 384-well plates in 10 uL volume, using TaqMan™ Fast Advanced Master Mix [ThermoFisher; 4444965] with primers and probes shown in the table below. Reactions are run in a Quant Studio 6 qPCR instrument with default settings.

mHTT protein = mHTT protein assay (2B7-MW1, Mesoscale Discovery); assay type: cell-based, human; conditions: GM04724 (CAG 70/20) Huntington's disease patient lymphoblast cells, 48 hours, 2B7-MW1 MSD; read-out: HTT Potency - Protein EC50 mHTT (average)
Outline: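 mHTT levels were read with the 2B7-MW1 antibody pair (N17 and polyQ epitopes) on MSD after 48 h dosing, 10 μM–0.6 nM. Cells were GM04724 HD lymphoblasts (CAG 70/20). A replica plate was read by CTG for cell viability.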

[3] = qPCR HTTex49_50, read-out: HTT Potency - Splicing: E49-50 EC50 (average)
[4] = qPCR cryptic exon 49b inclusion, read-out: HTT Potency - Splicing: E49b EC50 (average)

Row | SMILES | efflux ratio at 120 min, 5 μM (MDR1) | Papp A→B at 120 min, 5 μM (MDR1) [×10⁻⁶ cm/s] | Papp B→A at 120 min, 5 μM (MDR1) [×10⁻⁶ cm/s] | MDCK-MDR1: % Recov A-B [1] [%] | MDCK-MDR1: % Recov B-A [1] [%] | EC50 [2, 3] [nM] | EC50 [2, 4] [nM] | EC50 (mHTT protein) [nM]
1 | Oc1cc(-c2ccn3ccnc3c2)ccc1-c1ccc(O[C@@H]2C[C@H]3CCC[C@H](N3)[C@@H]2F)nn1 (single isomer, unassigned) [83-ENT1] | 23 | 1.05 | 23.8 | 48 | 64 | 501 to 10000 | 501 to 10000 | 101 to 500
2 | Cn1ccc2cc(-c3ccc(O[C@@H]4C[C@H]5CCC[C@H](N5)[C@@H]4F)nn3)c(O)cc2c1=O (single isomer, unassigned) [125-ENT2] | 16 | 3.2 | 52 | 84 | 87 | 101 to 500 | 51 to 100 | 16 to 50
3 | Oc1cc(-n2cccn2)ccc1-c1ccc(O[C@H]2C[C@@H]3CC[C@@H](N3)[C@H]2F)nn1 (single isomer, unassigned) [35-ENT2] | 4 | 6.25 | 24 | 62 | 68 | 101 to 500 | 101 to 500 | 51 to 100
4 | C[C@@]12CC[C@@](C)(N1)[C@@H](F)[C@@H](Oc1ccc(-c3ccc(-c4cn[nH]c4)cc3O)nn1)C2 (single isomer, unassigned) [2-ENT2] | 3 | 14.5 | 46.4 | 90 | 87 | 0.01 to 15 | 0.01 to 15 | 0.01 to 15
5 | C[C@@]12CCC[C@@](C)(N1)[C@@H](F)[C@@H](Oc1ccc(-c3ccc(-c4cn[nH]c4)cc3O)nn1)C2 (single isomer, unassigned) [147-ENT1] | 13 | 4.61 | 58.1 | 78 | 83 | 0.01 to 15 | 0.01 to 15 | 0.01 to 15
6 | Cn1c(=O)oc2cc(-c3ccc(O[C@@H]4C[C@H]5CCC[C@H](N5)[C@@H]4F)nn3)c(O)cc21 (single isomer, unassigned) [74-ENT1] | 4 | 5.6 | 22.8 | 96 | 88 | 101 to 500 | 501 to 10000 | 501 to 10000
7 | Cn1ccc2cc(-c3ccc(O[C@H]4CC5CCC[C@@H](N5)[C@H]4F)nn3)c(O)cc2c1=O (single isomer, unassigned) [125-ENT1] | 23 | 3.35 | 76 | 101 | 91 | 101 to 500 | 51 to 100 | 51 to 100
8 | Cn1ccc(-c2ccc(-c3ccc(O[C@H]4C[C@]5(C)CCC[C@@](C)(N5)[C@H]4F)nn3)c(O)c2)cc1=O (single isomer, unassigned) [149-ENT1] | 22 | 2.23 | 48.6 | 76 | 79 | 51 to 100 | 16 to 50 | 16 to 50
9 | Cn1ccc2cc(-c3ccc(O[C@@H]4C[C@H]5CC[C@H](N5)[C@@H]4F)nn3)c(O)cc2c1=O (single isomer, unassigned) [126-ENT2] | 13 | 3.51 | 45.5 | 93 | 92 | 501 to 10000 | 101 to 500 | 101 to 500
10 | Cn1ccc2cc(-c3ccc(O[C@H]4C[C@@H]5CC[C@@H](N5)[C@H]4F)nn3)c(O)cc2c1=O (single isomer, unassigned) [126-ENT1] | 14 | 3.5 | 48.3 | 100 | 95 | 101 to 500 | 51 to 100 | 16 to 50
11 | Oc1cc(-c2cn[nH]c2)c(F)cc1-c1ccc(O[C@@H]2C[C@H]3CCC[C@H](N3)[C@@H]2F)nn1 (single isomer, unassigned) [56-ENT1] | 15 | 2.63 | 39 | 55 | 74 | 0.01 to 15 | 0.01 to 15 | 0.01 to 15
12 | Oc1cc(-c2nnco2)ccc1-c1ccc(O[C@@H]2C[C@H]3CCC[C@H](N3)[C@@H]2F)nn1 (single isomer, unassigned) [117-ENT1] | 6 | 7.92 | 47.5 | 85 | 106 | 101 to 500 | 101 to 500 | 51 to 100
13 | CNC(=O)c1ccc2cc(-c3ccc(O[C@@H]4C[C@H]5CCC[C@H](N5)[C@@H]4F)nn3)c(O)cc2n1 (single isomer, unassigned) [136-ENT2] | 25 | 2.1 | 52.1 | 88 | 93 | 0.01 to 15 | 16 to 50 | 0.01 to 15
14 | COc1cc(-c2ccc(-c3ccc(O[C@@H]4C[C@@]5(C)CC[C@](C)(N5)[C@@H]4F)nn3)c(O)c2)cnn1 (single isomer, unassigned) [157-ENT1] | 6 | 6.28 | 35.7 | 77 | 84 | 16 to 50 | 16 to 50 | 16 to 50
15 | Cc1nc(-c2ccc(-c3ccc(O[C@H]4C[C@@H]5CCC[C@@H](N5)[C@H]4F)nn3)c(O)c2)cs1 (single isomer, unassigned) [71-ENT1] | 4 | 4.96 | 18.6 | 47 | 60 | 16 to 50 | 16 to 50 | 16 to 50
16 | Oc1cc(-c2cn[nH]c2)ccc1-c1ccc(O[C@@H]2C[C@H]3CC[C@H](N3)[C@H]2F)nn1 (single isomer, unassigned) [43-ENT2] | 9 | 6.27 | 58.7 | 83 | 84 | 16 to 50 | 16 to 50 | 0.01 to 15
17 | Cn1cc(-c2cc(O)c(-c3ccc(O[C@H]4C[C@@H]5CCC[C@@H](N5)[C@H]4F)nn3)cc2F)cn1 (single isomer, unassigned) [82-ENT2] | 4 | 3.26 | 12.8 | 35 | 72 | 0.01 to 15 | 0.01 to 15 | 0.01 to 15
18 | Oc1cc(-c2ccn3ccnc3c2)ccc1-c1ccc(O[C@H]2C[C@@H]3CCC[C@@H](N3)[C@H]2F)nn1 (single isomer, unassigned) [83-ENT2] | 12 | 0.77 | 9.61 | 47 | 66 | 501 to 10000 | 501 to 10000 | 101 to 500
